Measurements published in paper PMC11793105, “A kalihinol analog disrupts apicoplast function and vesicular trafficking in P. falciparum malaria” (Science (New York, N.Y.), 2024).
Like-named read-outs stand apart in the source and are kept apart here.

How the values were obtained:
hTERT = assay: Human cell line activity, hTERT; format: cell-based; settings: read-out: IC50 (µM) hTERT
[1] = tested on: P. knowlesi YH1 human erythrocyte infecting parasites; assay: P. knowlesi in vitro IC50 assay (flow cytometry), human erythrocytes; format: cell-based; settings: Plasmodium knowlesi
Description: Fig. 5. In vivo and broad-spectrum antimalarial efficacy of MED6-189. (A) The in vivo efficacy of MED6-189 was evaluated in a humanized mouse model infected with P. falciparum (blue) compared with untreated controls (black). […] The graphs illustrate the logarithmic growth of parasites (y axis) in response to varying drug concentrations (x axis). Error bars represent standard deviations from two independent experiments conducted in triplicate. The regression line is derived from a nonlinear regression analysis (variable slope with four parameters, least squares fit). (C) Proposed mode of action of MED6-189 in P. falciparum–infected erythrocytes. […]
(§1) Detailed information on materials and methods is available in the supplementary materials. […] P. knowlesi assays were quantitatively measured by flow cytometry using SYBR Green I and Mitrotracker Deep Red, as previously described ([84], [85]), on a Beckman Coulter CytoFLEX. […]
(§2) P. falciparum in vitro SYBR green fluorescence-based assays The anti-malarial activity of individual analogues were evaluated in-vitro against P. falciparum 3D7 (MRA-102, drug […]
(§3) green-I based fluorescence assay. Parasite growth rate and stages of development were determined via microscopy through Giemsa-stained smears of the cultures. […]

[2] = tested on: P. falciparum NF54 gametocytes; assay: Gametocyte development (sexual stage phenotype) assay; format: cell-based, Plasmodium falciparum; design: gametocytes after high dose: dose or concentration left out as unconfirmed
From the text: Parasitemia and sexual stage phenotype analyses To understand the phenotypic effects of […]
exposed to stress induced gametocyte induction followed by treatment with N-acetyl glucosamine (NAG; Sigma-Aldrich) supplemented media for 6-7 days to eliminate remaining asexual parasites.
Upon first signs of gametocyte formation observed through giemsa stained smears (5-7 post stress […]
with 3 biological replicates per condition. Culture media were replaced daily with reintroduction of the drug. Gametocyte parasitemia and proportion of the different sexual blood stages were determined by counting Giemsa-stained blood smears by light microscopy at every 24-hour time

[3] = tested on: P. falciparum NF54 (MRA-1000); assay: SYBR Green I growth inhibition assay, NF54; format: cell-based, Plasmodium falciparum; settings: early-ring stage, 72 h exposure
Description: (§4) Fig. 1. […] (B) SYBR Green–based dose response assays were conducted on early-ring stage parasites (6 hours after invasion). […] 3D7 WT (blue), NF54 (green), drug-resistant strains Dd2 (red), HB3 (black), W2 (gray), and D10-ACP-GFP (purple) lines (Sigmoidal, 4PL, X is concentration, n ≥ 3, nonlinear regression, CI: 95%). (C) Schematic diagram of the development of P. falciparum after two consecutive erythrocytic cycles. The time points at which MED6-189 was introduced are depicted in green. HPS, hours post synchronization. […] The images depict various developmental stages of the parasite’s intraerythrocytic life cycle. Bordered images represent time points when drug was first introduced (n = 3 biological replicates, P < 0.05).
as §1, §2, §3

THP1 = assay: Human cell line activity, THP1; format: cell-based; settings: THP-1, read-out: IC50 (µM) THP1
[4] = tested on: P. falciparum Dd2 (MRA-156); assay: SYBR Green I growth inhibition assay, Dd2; format: cell-based; settings: Plasmodium falciparum
Description: as §4, §1, §2, §3

HEK293 = assay: Human cell line activity, HEK293; format: cell-based; settings: HEK293, read-out: IC50 (µM) HEK293
[5] = target: hPXR (human pregnane X receptor) (Homo sapiens, UniProt O75469); assay: Enhanced Cross Screen Panel (eXP): hPXR; format: in vitro ADME
Sequence of hPXR (human pregnane X receptor) (O75469 whole entry): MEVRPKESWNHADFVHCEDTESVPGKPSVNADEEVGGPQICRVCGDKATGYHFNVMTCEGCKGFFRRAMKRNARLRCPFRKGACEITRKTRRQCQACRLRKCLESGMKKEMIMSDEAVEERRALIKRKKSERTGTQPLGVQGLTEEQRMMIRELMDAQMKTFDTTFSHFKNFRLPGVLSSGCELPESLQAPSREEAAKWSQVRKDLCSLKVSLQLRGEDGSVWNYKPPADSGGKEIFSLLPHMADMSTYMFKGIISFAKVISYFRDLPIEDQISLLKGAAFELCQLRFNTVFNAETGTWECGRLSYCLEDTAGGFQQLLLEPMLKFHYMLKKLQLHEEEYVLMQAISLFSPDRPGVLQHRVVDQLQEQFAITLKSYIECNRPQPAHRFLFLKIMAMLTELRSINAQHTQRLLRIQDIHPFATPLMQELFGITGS

## [C-]#[N+][C@]1(C)CC[C@H]2[C@@H]([C@@H](C(C)C)CC[C@]2(C)[N+]#[C-])[C@H]1O [MED6-189]
hTERT
  IC50: 26 µM
[1]
  IC50: 309 ± 42 nM
[2]; 300nM, day 1 post drug introduction
  (%) Gametocyte MED6-189 (average): 0%
[2]; 300nM, day 2 post drug introduction
  (%) Gametocyte MED6-189 (average): 0.1035%
[2]; 300nM, day 3 post drug introduction
  (%) Gametocyte MED6-189 (average): 0.55%
[2]; 300nM, day 4
  % Change of gametocytemia: 100%
[2]; 300nM, day 4 post drug introduction
  (%) Gametocyte MED6-189 (average): 1.5%
[2]; 300nM, day 5 post drug introduction
  (%) Gametocyte MED6-189 (average): 3.175%
[2]; 300nM, day 6 post drug introduction
  (%) Gametocyte MED6-189 (average): 2.102%
[2]; 300nM, day 7 post drug introduction
  (%) Gametocyte MED6-189 (average): 1.15%
[2]; 300nM, day 8 post drug introduction
  (%) Gametocyte MED6-189 (average): 1.35%
[2]; 300nM, day 9 post drug introduction
  (%) Gametocyte MED6-189 (average): 1.25%
[2]; 300 nM, stage III: days 4 to 6
  inhibition of early gametocyte development vs controls: ~ 62%
[2]; early stages of gametocyte development, after 48 hours of drug treatment
  gametocytes after high dose: no quantifiable gametocytes were observed
[2]; stage V
  effect on mature-stage gametocytes: little to no effect
[3]; Plasmodium falciparum, NF54, 72 h
  IC50: 28 ± 5 nM
[3]
  IC50: 27 nM
THP1
  IC50: 12 µM
[4]; DD2, 72 h
  IC50: 0.047 ± 0.007 µM
[4]; DD2, read-out: IC50 (µM) P. falciparum (Dd2)
  IC50: 0.017 µM
HEK293
  IC50: 28 µM
[5]
  IC50: 7400 nM
